Data on 10 molecules can be found in US20220146526A1, “METHOD FOR EVALUATING SAMPLE, ANALYSIS METHOD, METHOD FOR DETECTING DEGRADED SAMPLE, MARKER FOR DETECTING DEGRADED BLOOD PLASMA SAMPLE, AND MARKER FOR DETECTING DEGRADED SERUM SAMPLE” (SHIMADZU CORPORATION, priority 2019, published 2022).

Each structure is given as a SMILES string.

A short description of the first data set: GC/MS of serum sample: time from centrifugation to isolation (Table H). The format is physicochemical, human. As to conditions: detection intensity relative to 1 at 30 minutes, after 1 hour. Details: key to Rate of increase or decrease / Rate of increase or decrease (first value, increase): detection intensity relative to 1 at 30 min centrifugation-to-isolation. As for the experimental part:
(§1) After standing, the blood sample was subjected to centrifugation under a condition of room temperature, 3500 rpm, and 5 minutes. […] After centrifugation, the blood-collecting vessel was left to stand at room temperature, and the serum was isolated during this time. Here, in order to investigate how the detection intensity of molecules contained in the sample was affected in cases where the time during which the blood-collecting vessel was left at room temperature was set to 1 hour and 6 hours as compared to that in a case where the time was set to 30 minutes, preparations were performed under the respective conditions of 30 minutes, 1 hour, and 6 hours. The obtained serum sample was frozen and stored. Here, in order to investigate how the detection intensity of molecules contained in the sample was affected in cases where freezing and thawing was performed 4 times, 6 times, and 10 times after freezing as compared to that in a case where freezing and thawing was performed 2 times after freezing, freezing and thawing was performed under the respective conditions of 2, 4, 6, and 10 times.
(§2) Frozen blood plasma samples and serum samples were subjected to GC/MS or LC/MS. In GC/MS, the blood plasma samples and serum samples were subjected to methoxymation and trimethylsilylation and then introduced to GC-MS.
(§3) GC/MS was conducted using GCMS·TQ8040 (Shimadzu Corporation) that was a GC·MS equipped with AOC·20i (Shimadzu Corporation) as an autosampler.
(§4) Column: BPX5 (inner diameter of 0.25 mm, length of 30 m, and film thickness of 0.25 μm) (SGE)
(§5) Column temperature: maintained at 60° C. for 2 minutes, then raised at 15° C./min, and maintained at 330° C. for 3 minutes.
(§6) Inlet temperature: 250° C.
(§7) Carrier gas control mode: constant linear velocity of 39.0 cm/sec
(§8) Sample introduction method: split (split ratio of 30:1) Injection volume: 1 μL
(§9) Ionization method: electron ionization
(§10) Ionization current: 60 μA
(§11) Interface temperature: 280° C.
(§12) Ion source temperature: 200° C.
(§13) Mode: multiple reaction monitoring (MRM)
The rate of increase or decrease in Table H is the value of detection intensity relative to 1 that is the detection intensity in a case where the time from centrifugation to isolation is set to 30 minutes.
Turning to `CC(O)(CC(=O)O)C(=O)O` (stereo not drawn) [Citramalic acid], the “Rate of increase or decrease” value amounted to 0.33.

Staying with this data set, now noted: detection intensity relative to 1 at 30 minutes, after 6 hours.
For `O=C(O)CCc1c[nH]c2ccccc12` [3-Indolepropionic acid], the “Rate of increase or decrease” value was 1.54.
Still for that read-out and setting: to `O=C(CO)[C@@H](O)[C@H](O)CO` [Xylulose] belongs 2.48; to `NCCc1ccc(O)cc1` [Tyramine], 3.34; to `O=C(O)[C@@H](O)[C@H](O)CO` [Threonic acid], 1.45.
In the case of `O=c1cc[nH]c(=O)[nH]1` [Uracil], the “Rate of increase or decrease” value is listed as 4.84.
Consider `NO` [Hydroxylamine], for which the “Rate of increase or decrease” value is recorded as 1.87.
On to `CC(=O)CC(=O)O` [Acetoacetic acid], for which the “Rate of increase or decrease” value turned out to be 1.39.
`O=C(O)C(=O)Cc1ccccc1` [Phenylpyruvic acid]: the “Rate of increase or decrease” value was 1.45.

Still in this data set, the particulars now being: detection intensity, after 1 hour vs 30 minutes.
Turning to `O=C1O[C@H](CO)[C@@H](O)[C@H]1O` [Ribonic acid lactone], the Increase or decrease result is recorded as “Different from individual”.
For `CC(O)(CC(=O)O)C(=O)O` (stereo not drawn) [Citramalic acid], the Increase or decrease result is “Decrease”.

Staying with this data set, now noted: detection intensity, after 6 hours vs 30 minutes.
Consider `O=C(O)CCc1c[nH]c2ccccc12` [3-Indolepropionic acid], for which the Increase or decrease entry is “Increase”.
As for `O=C(CO)[C@@H](O)[C@H](O)CO` [Xylulose], the Increase or decrease result is reported as “Increase”.
With `NCCc1ccc(O)cc1` [Tyramine], the Increase or decrease result is on record as “Increase”.
For `O=C(O)[C@@H](O)[C@H](O)CO` [Threonic acid], the Increase or decrease entry is “Increase”.
Regarding `O=c1cc[nH]c(=O)[nH]1` [Uracil], the Increase or decrease entry is “Increase”.
On to `NO` [Hydroxylamine], for which the Increase or decrease result is “Increase”.
The same measure, in the same setting: under `CC(=O)CC(=O)O` [Acetoacetic acid] stands “Increase”.
Take `O=C(O)C(=O)Cc1ccccc1` [Phenylpyruvic acid]: the Increase or decrease result is “Increase”.

The same data set, now with this note: different from individual to individual, individuals with decrease, relative to 1 at 30 minutes, after 1 hour.
For the molecule `O=C1O[C@H](CO)[C@@H](O)[C@H]1O` [Ribonic acid lactone], the “Rate of increase or decrease (second value, decrease)” value worked out at 0.57.

Staying with this data set, now noted: different from individual to individual, individuals with increase, relative to 1 at 30 minutes, after 1 hour.
In the case of `O=C1O[C@H](CO)[C@@H](O)[C@H]1O` [Ribonic acid lactone], the “Rate of increase or decrease (first value, increase)” value is listed as 1.71.

The nature of the next data set: GC/MS of serum sample: time from blood collection to centrifugation (Table G). The format is physicochemical, human. As to conditions: detection intensity relative to 1 at 15 minutes, blood collection to centrifugation, after 4 hours. On the procedure: as §1, §2, §3, §4, §5, §6, §7, §8, §9, §10, §11, §12, §13
The rate of increase or decrease in Table G is the value of detection intensity relative to 1 that is the detection intensity in a case where the time from blood collection to centrifugation is set to 15 minutes.
For the molecule `O=C(O)CCc1c[nH]c2ccccc12` [3-Indolepropionic acid], the “Rate of increase or decrease” value is on record as 1.93.
In the case of `NCCc1ccc(O)cc1` [Tyramine], the “Rate of increase or decrease” value came out at 2.37.
For `CC(O)(CC(=O)O)C(=O)O` (stereo not drawn) [Citramalic acid], the “Rate of increase or decrease” value stood at 2.01.
For `O=c1cc[nH]c(=O)[nH]1` [Uracil], the “Rate of increase or decrease” value is reported as 1.38.

The same data set, now with this note: detection intensity relative to 1 at 15 minutes, blood collection to centrifugation, after 8 hours.
Consider `O=C(CO)[C@@H](O)[C@H](O)CO` [Xylulose], for which the “Rate of increase or decrease” value was found to be 1.95.
Turning to `O=C1O[C@H](CO)[C@@H](O)[C@H]1O` [Ribonic acid lactone], the “Rate of increase or decrease” value turned out to be 0.68.
Still for that read-out and setting: under `O=C(O)[C@@H](O)[C@H](O)CO` [Threonic acid] stands 0.55; under `CC(=O)CC(=O)O` [Acetoacetic acid], 1.46.

The data set is the same for the next values; noted with them: detection intensity, blood collection to centrifugation, after 4 hours vs 15 minutes.
In the case of `O=C(O)CCc1c[nH]c2ccccc12` [3-Indolepropionic acid], the Increase or decrease result is “Increase”.
Consider `NCCc1ccc(O)cc1` [Tyramine], for which the Increase or decrease result is reported as “Increase”.
Still for that read-out and setting: to `CC(O)(CC(=O)O)C(=O)O` (stereo not drawn) [Citramalic acid] belongs “Increase”; to `O=c1cc[nH]c(=O)[nH]1` [Uracil], “Increase”.

Still in this data set, the particulars now being: detection intensity, blood collection to centrifugation, after 8 hours vs 15 minutes.
Consider `O=C(CO)[C@@H](O)[C@H](O)CO` [Xylulose], for which the Increase or decrease entry is “Increase”.
Same read-out and setting: to `O=C1O[C@H](CO)[C@@H](O)[C@H]1O` [Ribonic acid lactone] belongs “Decrease”; to `O=C(O)[C@@H](O)[C@H](O)CO` [Threonic acid], “Decrease”.
Regarding `CC(=O)CC(=O)O` [Acetoacetic acid], the Increase or decrease entry was “Increase”.

The nature of another data set: GC/MS of serum sample: number of times of freezing and thawing (Table I). The format is physicochemical, human. Details: key to Rate of increase or decrease / Rate of increase or decrease (first value, increase): detection intensity relative to 2 freeze-thaw cycles = 1. Conditions: 10 times of freezing and thawing; detection intensity relative to 1 at 2 times. As for the experimental part: as §1, §2, §3, §4, §5, §6, §7, §8, §9, §10, §11, §12, §13
The rate of increase or decrease in Table I is the value of detection intensity relative to 1 that is the detection intensity in a case where the number of times of freezing and thawing is set to 2 times.
As for `NCCc1ccc(O)cc1` [Tyramine], the “Rate of increase or decrease” value is 3.78.
Regarding `CC(O)(CC(=O)O)C(=O)O` (stereo not drawn) [Citramalic acid], the “Rate of increase or decrease” value is recorded as 0.53.
With `NO` [Hydroxylamine], the “Rate of increase or decrease” value stood at 2.31.
Regarding `O=C(O)C(=O)Cc1ccccc1` [Phenylpyruvic acid], the “Rate of increase or decrease” value is 2.06.

Still in this data set, the particulars now being: detection intensity relative to 1 at 2 times; serum, GC/MS; freezing and thawing 4 times.
For `O=C1O[C@H](CO)[C@@H](O)[C@H]1O` [Ribonic acid lactone], the “Rate of increase or decrease” value is 1.33.
Regarding `O=C(O)[C@@H](O)[C@H](O)CO` [Threonic acid], the “Rate of increase or decrease” value came out at 0.56.
On to `CC(=O)CC(=O)O` [Acetoacetic acid], for which the “Rate of increase or decrease” value is 1.39.

Staying with this data set, now noted: detection intensity relative to 1 at 2 times; serum, GC/MS; freezing and thawing 6 times.
Consider `O=c1cc[nH]c(=O)[nH]1` [Uracil], for which the “Rate of increase or decrease” value came to 1.54.

Still in this data set, the particulars now being: detection intensity; serum, GC/MS; freezing and thawing 4 times vs 2 times.
For `O=C1O[C@H](CO)[C@@H](O)[C@H]1O` [Ribonic acid lactone], the Increase or decrease entry was “Increase”.
`O=C(O)[C@@H](O)[C@H](O)CO` [Threonic acid]: the Increase or decrease entry was “Decrease”.
`CC(=O)CC(=O)O` [Acetoacetic acid]: the Increase or decrease entry is listed as “Increase”.

The same data set, now with this note: detection intensity; serum, GC/MS; freezing and thawing 6 times vs 2 times.
For `O=c1cc[nH]c(=O)[nH]1` [Uracil], the Increase or decrease entry is reported as “Increase”.

Staying with this data set, now noted: detection intensity; serum, GC/MS; freezing and thawing 10 times vs 2 times.
On to `O=C(O)CCc1c[nH]c2ccccc12` [3-Indolepropionic acid], for which the Increase or decrease entry was “Different from individual”.

Staying with this data set, now noted: different from individual to individual, individuals with decrease; relative to 1 at 2 times; serum, GC/MS; freezing and thawing 10 times.
On to `O=C(O)CCc1c[nH]c2ccccc12` [3-Indolepropionic acid], for which the “Rate of increase or decrease (second value, decrease)” value came to 0.67.

The same data set, now with this note: different from individual to individual, individuals with increase; relative to 1 at 2 times; serum, GC/MS; freezing and thawing 10 times.
On to `O=C(O)CCc1c[nH]c2ccccc12` [3-Indolepropionic acid], for which the “Rate of increase or decrease (first value, increase)” value is listed as 2.21.

The data set is the same for the next values; noted with them: serum sample, GC/MS; detection intensity changed by 30% or more vs 2 times of freezing and thawing.
`NCCc1ccc(O)cc1` [Tyramine]: the “Number of times when compound is affected” value (“Number of times” below) is reported as 10 times.
Consider `CC(O)(CC(=O)O)C(=O)O` (stereo not drawn) [Citramalic acid], for which the “Number of times” value turned out to be 10 times.
On to `NO` [Hydroxylamine], for which the “Number of times” value is 10 times.
For `O=C(O)C(=O)Cc1ccccc1` [Phenylpyruvic acid], the “Number of times” value is reported as 10 times.

The same data set, now with this note: serum sample, GC/MS; detection intensity vs 2 times of freezing and thawing.
Take `NCCc1ccc(O)cc1` [Tyramine]: the Increase or decrease result is given as “Increase”.
With `CC(O)(CC(=O)O)C(=O)O` (stereo not drawn) [Citramalic acid], the Increase or decrease result is given as “Decrease”.
With `NO` [Hydroxylamine], the Increase or decrease entry is on record as “Increase”.
Regarding `O=C(O)C(=O)Cc1ccccc1` [Phenylpyruvic acid], the Increase or decrease entry is “Increase”.
